pIC50: −log10 of the molar value.
How the values were obtained:
[1] = biological target: T1, Glutaminase kidney isoform, mitochondrial (Homo sapiens, UniProt O94925); assay: Allosteric inhibition of human GLS1 using glutamine as substrate incubated for 60 mins by NADH/NADPH-based absorbance analysis
T1 sequence (O94925 whole entry): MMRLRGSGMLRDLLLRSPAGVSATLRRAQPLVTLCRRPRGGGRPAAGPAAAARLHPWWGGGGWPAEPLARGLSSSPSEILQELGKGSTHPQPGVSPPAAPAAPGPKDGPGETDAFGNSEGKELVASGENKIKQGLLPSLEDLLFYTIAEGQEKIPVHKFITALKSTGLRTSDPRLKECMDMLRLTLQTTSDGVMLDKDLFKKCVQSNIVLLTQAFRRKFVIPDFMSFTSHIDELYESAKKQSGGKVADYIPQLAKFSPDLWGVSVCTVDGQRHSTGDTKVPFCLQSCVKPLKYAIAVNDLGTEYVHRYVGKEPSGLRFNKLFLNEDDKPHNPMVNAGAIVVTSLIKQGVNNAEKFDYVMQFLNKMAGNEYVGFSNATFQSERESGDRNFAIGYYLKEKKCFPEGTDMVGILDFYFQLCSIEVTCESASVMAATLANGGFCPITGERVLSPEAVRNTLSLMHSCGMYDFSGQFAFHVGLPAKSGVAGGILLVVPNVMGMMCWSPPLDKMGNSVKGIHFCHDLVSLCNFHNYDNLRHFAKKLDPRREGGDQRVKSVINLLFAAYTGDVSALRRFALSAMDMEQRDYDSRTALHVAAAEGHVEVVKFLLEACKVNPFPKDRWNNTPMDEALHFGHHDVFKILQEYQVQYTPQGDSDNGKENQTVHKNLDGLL

[2] = system: HCT-116; assay: Antiproliferative activity against human HCT-116 cells overexpressing GLS1 assessed as inhibition of cell proliferation measured after 72 hrs by MTT assay; type: functional, cell-based; conditions: HCT-116, 72 h
[3] = system: MDA-MB-436; assay: Antiproliferative activity against human MDA-MB-436 cells overexpressing GLS1 assessed as inhibition of cell proliferation measured after 72 hrs by MTT assay; type: functional, cell-based; conditions: MDA-MB-436, 72 h
[4] = Metabolic stability in human liver microsomes assessed as intrinsic clearance at 10 uM by LC-MS/MS analysis; type: ADME, Microsome; conditions: read-out: CLH
[5] = Metabolic stability in human liver microsomes assessed as half life at 10 uM by LC-MS/MS analysis; type: ADME, Microsome; conditions: liver microsomes
[6] = Metabolic stability in human plasma assessed as parent compound remaining at 1 uM measured after 2 hrs by LC-MS/MS analysis; type: ADME, cell-free; conditions: read-out: Stability

| pIC50 [1] | pIC50 [2] | pIC50 [3] | microsomal CLint at 10 µM [4] [µL/min/mg] | half-life at 10 µM [5] [h] | remaining at 2 h, 1 µM [6] [%] | Structure (SMILES) |
| --- | --- | --- | --- | --- | --- | --- |
| 6.67 | 4.81 | < 4.70 |  |  |  | O=C(Cc1ccccc1)Nc1nnc(N[C@H]2CCN(c3nnc(NC(=O)CCc4cn(-c5ccc(C(F)(F)F)cc5)nn4)s3)C2)s1 |
| 7.60 | 5.84 | 5.69 |  |  |  | COc1ccc(Cn2cc(CCC(=O)Nc3ccc(N4CCC(Nc5nnc(NC(=O)Cc6ccccn6)s5)CC4)nn3)nn2)cc1 |
| 6.42 | 5.00 | < 4.70 |  |  |  | O=C(Cc1ccccc1)Nc1nnc(N[C@H]2CCN(c3nnc(NC(=O)CCc4cn(Cc5ccc(OC(F)(F)F)cc5)nn4)s3)C2)s1 |
| 8.06 | 6.89 | 6.29 | 23.1 | 1.27 | 79 | O=C(Cc1ccccc1)Nc1nnc(NC2CCN(c3nnc(NC(=O)CCc4cn(Cc5ccc(C(F)(F)F)cc5)nn4)s3)CC2)s1 |
| 8.05 | 6.31 | 6.08 |  |  |  | Cc1ccc(Cn2cc(CCC(=O)Nc3ccc(N4CC[C@@H](Nc5nnc(NC(=O)Cc6ccccn6)s5)C4)nn3)nn2)cc1 |
| 7.63 | 6.52 | 5.96 | 9.21 | 3.14 | 95 | CO[C@H](C(=O)Nc1nnc(NC2CCN(c3nnc(NC(=O)CCc4cn(Cc5ccc(C(F)(F)F)cc5)nn4)s3)CC2)s1)c1ccccc1 |
| 6.26 | 4.85 | < 4.70 |  |  |  | COc1ccc(Cn2cc(CCC(=O)Nc3nnc(N4CC[C@H](Nc5nnc(NC(=O)Cc6ccccc6)s5)C4)s3)nn2)cc1 |
| 7.95 | 6.17 | 5.81 |  |  |  | COc1ccc(Cn2cc(CCC(=O)Nc3ccc(N4CC[C@@H](Nc5nnc(NC(=O)Cc6ccccn6)s5)C4)nn3)nn2)cc1 |
| < 5.00 |  |  |  |  |  | COc1ccc(Cn2cc(CCC(=O)Nc3ccc(N4CCC(Nc5nnc(N)s5)CC4)nn3)nn2)cc1 |
| 7.11 | 5.49 | 5.38 |  |  |  | COc1ccc(Cn2cc(CCC(=O)Nc3nnc(N4CCC(Nc5nnc(NC(=O)Cc6ccccc6)s5)CC4)s3)nn2)cc1OC |
| 7.75 | 6.07 | 5.69 |  |  |  | O=C(Cc1ccccc1)Nc1nnc(N[C@@H]2CCN(c3nnc(NC(=O)CCc4cn(-c5ccc(C(F)(F)F)cc5)nn4)s3)C2)s1 |
| < 5.00 |  |  |  |  |  | Cc1ccc(Cn2cc(CCC(=O)Nc3ccc(N4CCC(Nc5nnc(N)s5)CC4)nn3)nn2)cc1 |
| < 5.00 |  |  |  |  |  | Cc1cccc(C)c1Cn1cc(CCC(=O)Nc2ccc(N3CCC(Nc4nnc(N)s4)CC3)nn2)nn1 |
| 7.78 | 6.24 | 5.78 |  |  |  | O=C(Cc1ccccc1)Nc1nnc(N[C@@H]2CCN(c3nnc(NC(=O)CCc4cn(Cc5ccc(OC(F)(F)F)cc5)nn4)s3)C2)s1 |
| < 5.00 |  |  |  |  |  | Nc1nnc(NC2CCN(c3ccc(NC(=O)CCc4cn(Cc5ccc(C(F)(F)F)cc5)nn4)nn3)CC2)s1 |
| 7.38 | 5.44 | 5.37 |  |  |  | Cc1cccc(C)c1Cn1cc(CCC(=O)Nc2ccc(N3CC[C@@H](Nc4nnc(NC(=O)Cc5ccccn5)s4)C3)nn2)nn1 |
| 7.16 | 5.40 | 5.34 |  |  |  | Cc1cccc(C)c1Cn1cc(CCC(=O)Nc2nnc(N3CCC(Nc4nnc(NC(=O)Cc5ccccc5)s4)CC3)s2)nn1 |
| < 5.00 |  |  |  |  |  | Nc1nnc(NC2CCN(c3ccc(NC(=O)CCc4cn(Cc5ccc(OC(F)(F)F)cc5)nn4)nn3)CC2)s1 |
| 7.22 | 5.24 | 5.17 |  |  |  | COc1ccc(Cn2cc(CCC(=O)Nc3ccc(N4CCC(Nc5nnc(NC(=O)Cc6ccccn6)s5)CC4)nn3)nn2)cc1OC |
| 7.24 | 6.25 | 6.12 |  |  |  | COc1ccc(Cn2cc(CCC(=O)Nc3nnc(N4CC[C@@H](Nc5nnc(NC(=O)Cc6ccccc6)s5)C4)s3)nn2)cc1 |

| pIC50 [1] | pIC50 [2] | pIC50 [3] | microsomal CLint at 10 µM [4] [µL/min/mg] | half-life at 10 µM [5] [h] | remaining at 2 h, 1 µM [6] [%] | Structure (SMILES) |
| --- | --- | --- | --- | --- | --- | --- |
| 7.76 | 5.91 | 5.99 |  |  |  | O=C(CCc1cn(Cc2ccc(OC(F)(F)F)cc2)nn1)Nc1ccc(N2CCC(Nc3nnc(NC(=O)Cc4ccccn4)s3)CC2)nn1 |
| 7.70 | 6.24 | 6.33 |  |  |  | Cc1ccc(Cn2cc(CCC(=O)Nc3ccc(N4CCC(Nc5nnc(NC(=O)Cc6ccccn6)s5)CC4)nn3)nn2)cc1 |
| < 6.00 | < 4.70 | < 4.70 |  |  |  | O=C(CCc1cn(Cc2ccc(C(F)(F)F)cc2)nn1)Nc1ccc(N2CC[C@H](Nc3nnc(NC(=O)Cc4ccccn4)s3)C2)nn1 |
| 6.51 | 4.90 | < 4.70 |  |  |  | Cc1ccc(Cn2cc(CCC(=O)Nc3nnc(N4CC[C@H](Nc5nnc(NC(=O)Cc6ccccc6)s5)C4)s3)nn2)cc1 |
| 7.74 | 6.28 | 6.08 |  |  |  | O=C(CCc1cn(Cc2ccc(C(F)(F)F)cc2)nn1)Nc1ccc(N2CCC(Nc3nnc(NC(=O)Cc4ccccn4)s3)CC2)nn1 |
| 7.17 | 5.22 | 5.16 |  |  |  | Cc1cccc(C)c1Cn1cc(CCC(=O)Nc2ccc(N3CCC(Nc4nnc(NC(=O)Cc5ccccn5)s4)CC3)nn2)nn1 |
| 6.64 | 5.08 | < 4.70 |  |  |  | O=C(Cc1ccccc1)Nc1nnc(N[C@H]2CCN(c3nnc(NC(=O)CCc4cn(Cc5ccc(C(F)(F)F)cc5)nn4)s3)C2)s1 |
| 7.45 | 5.41 | 5.35 |  |  |  | COc1ccc(Cn2cc(CCC(=O)Nc3ccc(N4CC[C@@H](Nc5nnc(NC(=O)Cc6ccccn6)s5)C4)nn3)nn2)cc1OC |
| 7.91 | 6.46 | 6.38 |  |  |  | Cc1ccc(Cn2cc(CCC(=O)Nc3nnc(N4CCC(Nc5nnc(NC(=O)Cc6ccccc6)s5)CC4)s3)nn2)cc1 |
| < 6.00 | < 4.70 | < 4.70 |  |  |  | COc1ccc(Cn2cc(CCC(=O)Nc3ccc(N4CC[C@H](Nc5nnc(NC(=O)Cc6ccccn6)s5)C4)nn3)nn2)cc1 |
| 7.77 | 6.72 | 6.40 |  |  |  | O=C(Cc1ccccc1)Nc1nnc(NC2CCN(c3nnc(NC(=O)CCc4cn(Cc5ccc(OC(F)(F)F)cc5)nn4)s3)CC2)s1 |
| 7.78 | 6.46 | 6.28 |  |  |  | Cc1ccc(Cn2cc(CCC(=O)Nc3nnc(N4CC[C@@H](Nc5nnc(NC(=O)Cc6ccccc6)s5)C4)s3)nn2)cc1 |
| < 5.00 |  |  |  |  |  | COc1ccc(Cn2cc(CCC(=O)Nc3ccc(N4CCC(Nc5nnc(N)s5)CC4)nn3)nn2)cc1OC |
| < 6.00 | < 4.70 | < 4.70 |  |  |  | O=C(CCc1cn(Cc2ccc(OC(F)(F)F)cc2)nn1)Nc1ccc(N2CC[C@H](Nc3nnc(NC(=O)Cc4ccccn4)s3)C2)nn1 |
| 7.99 | 6.29 | 6.14 |  |  |  | O=C(CCc1cn(Cc2ccc(C(F)(F)F)cc2)nn1)Nc1ccc(N2CC[C@@H](Nc3nnc(NC(=O)Cc4ccccn4)s3)C2)nn1 |
| < 6.00 | < 4.70 | < 4.70 |  |  |  | Cc1ccc(Cn2cc(CCC(=O)Nc3ccc(N4CC[C@H](Nc5nnc(NC(=O)Cc6ccccn6)s5)C4)nn3)nn2)cc1 |
| 7.86 | 6.15 | 6.06 |  |  |  | O=C(CCc1cn(Cc2ccc(OC(F)(F)F)cc2)nn1)Nc1ccc(N2CC[C@@H](Nc3nnc(NC(=O)Cc4ccccn4)s3)C2)nn1 |
| 7.91 | 6.54 | 6.20 |  |  |  | O=C(Cc1ccccc1)Nc1nnc(N[C@@H]2CCN(c3nnc(NC(=O)CCc4cn(Cc5ccc(C(F)(F)F)cc5)nn4)s3)C2)s1 |
| 7.83 | 6.39 | 6.21 |  |  |  | COc1ccc(Cn2cc(CCC(=O)Nc3nnc(N4CCC(Nc5nnc(NC(=O)Cc6ccccc6)s5)CC4)s3)nn2)cc1 |

— ChEMBL document CHEMBL5154870, “Discovery of novel glutaminase 1 allosteric inhibitor with 4-piperidinamine linker and aromatic heterocycles” (Eur J Med Chem, 2022)
